Experimental data reported in ChEMBL document CHEMBL3886143, “(Hetero)aryl cyclopropylamine compounds as LSD1 inhibitors” (2016).
pKi: −log10 of the molar value.

Target: T1, Amine oxidase [flavin-containing] A (Homo sapiens, UniProt P21397)
T1 sequence (P21397 whole entry): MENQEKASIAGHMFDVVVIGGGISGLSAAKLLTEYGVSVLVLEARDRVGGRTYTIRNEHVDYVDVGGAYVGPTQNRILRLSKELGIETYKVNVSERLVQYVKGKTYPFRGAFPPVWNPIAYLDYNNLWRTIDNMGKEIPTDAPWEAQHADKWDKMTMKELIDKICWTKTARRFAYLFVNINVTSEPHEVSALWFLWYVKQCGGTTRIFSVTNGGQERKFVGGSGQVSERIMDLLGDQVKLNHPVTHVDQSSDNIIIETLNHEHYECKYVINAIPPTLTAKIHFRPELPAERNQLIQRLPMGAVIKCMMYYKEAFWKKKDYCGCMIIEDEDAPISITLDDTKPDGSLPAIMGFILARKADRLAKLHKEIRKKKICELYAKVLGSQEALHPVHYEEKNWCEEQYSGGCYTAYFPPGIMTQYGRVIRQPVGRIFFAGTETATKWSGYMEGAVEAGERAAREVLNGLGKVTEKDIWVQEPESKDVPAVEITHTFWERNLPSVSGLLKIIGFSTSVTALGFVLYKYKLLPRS
Experiment: Fluorescence-Based (Inhibitor)-Screening Assay: In order to monitor MAO enzymatic activities and/or their inhibition rate by inhibitor(s) of interest, a fluorescence-based (inhibitor)-screening assay was set up. 3-(2-Aminophenyl)-3-oxopropanamine (kynuramine dihydrobromide, Sigma Aldrich), a non fluorescent compound was chosen as a substrate. Kynuramine is a non-specific substrate for both MAO-A and MAO-B activities. While undergoing oxidative deamination by MAO activities, kynuramine is converted into 4-hydroxyquinoline (4-HQ), a resulting fluorescent product.The monoamine oxidase activity was estimated by measuring the conversion of kynuramine into 4-hydroxyquinoline. Assays were conducted in 96-well black plates with clear bottom (Corning) in a final volume of 100 uL. The assay buffer was 100 mM HEPES, pH 7.5. […] Clorgyline and Deprenyl (Sigma Aldrich) was used as a control for specific inhibition of MAO-A and MAO-B respectively. After leaving the enzyme(s) interacting with the inhibitor, KM of kynuramine was added to each reaction for MAO-B and MAO-A assay respectively, and the reaction was left for 1 hour at 37° C. in the dark. The oxidative deamination of the substrate was stopped by adding 50 uL of NaOH 2N. […] The IC50 values of each inhibitor were calculated with GraphPad Prism Software.

N[C@H]1CC[C@H](N[C@@H]2C[C@H]2c2ccccc2)CC1
pKi: < 4.40
